Molecular target: human mGluR2 (Homo sapiens (Human), UniProt Q14416)
Test: MGluR2 cAMP assay
Type: cell-based
Settings: HEK293 cells clonally expressing human mGluR2, 1 μM forskolin, 1 μM LY-341495
Description: Clonally expressed human mGluR2 in HEK293 background was glutamate starved overnight in media without glutamine (GIBCO MEM 12360), containing 10% FBS, 1% penicillin streptomycin.
On the day of the assay, media was removed, cells washed with PBS, cells harvested and pelleted by centrifugation. Cell pellets were resuspended in stimulation buffer without forskolin and counted. A solution of 1.25×10^6 cells/ml was prepared and dispensed to plates using a Combi liquid handler (Thermo). A standard curve was created using a top concentration of cAMP of 1 μM in the stimulation buffer, 1:3 dilutions over 14 points in the absence of cells. Plates were read by time-resolved fluorescence at […] and a ratio was calculated via in house software, (665 nM/618 nM)*10^4. In house software converted the fluorescence value ratios to units of cAMP concentration, which is then used to calculate % inhibition for each test compound.
Compounds were added to white, standard volume 384 non-binding surface plates (Corning 3574). Cells were resuspended in stimulation buffer consisting of Hanks Balanced Salt Solution (14175-095) pH 7.0, 20 mM HEPES, 2.0 mM CaCl2, 5.0 mM MgCl2, and 1 mM IBMX (Sigma 15879), 1 μM forskolin, and 1 μM LY-341495, for 30 minutes. Buffer without forskolin was used as a negative control. Solutions of D2 and cryptate detection reagents from the CISBIO dynamic cAMP kit (62AM4PEJ) were diluted 1:40 in lysis buffer. Lysis buffer consisted of 50 mM Phosphate Buffer pH 7.0, 800 mM Potassium Fluoride, 0.2% BSA, and 1.0% Triton. Assay reaction was terminated by addition of detection reagents in lysis buffer. One hour later, plates were read on a PE Viewlux. Data was extracted, and concentration response curves generated by fitting the data to a standard 4 parameter logistic equation from which EC50 values were determined See table 1: A: <10 nM; B: 10-100 nM; C: 100-1000 nM; D: 1000-10000 nM.

Chain of human mGluR2 (Q14416 19-872): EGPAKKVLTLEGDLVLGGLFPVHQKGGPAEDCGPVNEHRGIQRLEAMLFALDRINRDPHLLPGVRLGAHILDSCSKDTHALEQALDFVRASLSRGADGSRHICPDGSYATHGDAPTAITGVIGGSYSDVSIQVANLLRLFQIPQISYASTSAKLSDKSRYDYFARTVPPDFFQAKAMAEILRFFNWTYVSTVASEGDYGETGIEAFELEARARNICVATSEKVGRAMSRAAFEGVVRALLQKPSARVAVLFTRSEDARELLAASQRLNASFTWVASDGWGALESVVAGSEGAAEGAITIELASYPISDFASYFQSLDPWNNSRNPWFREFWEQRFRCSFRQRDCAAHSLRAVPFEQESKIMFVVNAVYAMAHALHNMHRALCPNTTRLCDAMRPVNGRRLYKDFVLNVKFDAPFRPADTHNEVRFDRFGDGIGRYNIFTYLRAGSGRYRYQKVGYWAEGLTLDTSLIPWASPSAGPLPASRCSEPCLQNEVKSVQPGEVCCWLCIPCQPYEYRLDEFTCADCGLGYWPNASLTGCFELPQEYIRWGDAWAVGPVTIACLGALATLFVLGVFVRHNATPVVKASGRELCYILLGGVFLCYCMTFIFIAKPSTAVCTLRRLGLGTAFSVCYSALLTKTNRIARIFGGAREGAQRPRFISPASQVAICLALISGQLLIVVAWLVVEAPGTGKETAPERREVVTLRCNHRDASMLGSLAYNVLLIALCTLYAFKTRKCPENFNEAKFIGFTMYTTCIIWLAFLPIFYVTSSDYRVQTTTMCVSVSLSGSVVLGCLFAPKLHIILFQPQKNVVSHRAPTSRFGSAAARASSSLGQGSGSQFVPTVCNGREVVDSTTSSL

Structure (SMILES)	EC50
COc1ccccc1C1CCN(c2cnn3c(CC4CC4)nnc3c2Cl)CC1 [Example 27, 8-Chloro-3-(cyclopropylmethyl)-7-(4-(2-methoxyphenyl)piperidin-1-yl)-[1,2,4]triazolo[4,3-b]pyridazine]	0.009 µM
COc1cccc(C2CCN(c3cnn4c(CC5CC5)nnc4c3Cl)CC2)c1 [Example 28, 8-Chloro-3-(cyclopropylmethyl)-7-(4-(3-methoxyphenyl)piperidin-1-yl)-[1,2,4]triazolo[4,3-b]pyridazine]	0.038 µM
Cc1ccccc1C1CCN(c2cnn3c(CC4CC4)nnc3c2Cl)CC1 [Example 29, 8-Chloro-3-(cyclopropylmethyl)-7-(4-(o-tolyl)piperidin-1-yl)-[1,2,4]triazolo[4,3-b]pyridazine]	0.021 µM
COc1ccc(C2CCN(c3cnn4c(CC5CC5)nnc4c3Cl)CC2)cc1 [Example 30, 8-Chloro-3-(cyclopropylmethyl)-7-(4-(4-methoxyphenyl)piperidin-1-yl)-[1,2,4]triazolo[4,3-b]pyridazine]	0.018 µM
COC(=O)c1ccccc1C1CCN(c2cnn3c(CC4CC4)nnc3c2Cl)CC1 [Example 31, Methyl 2-(1-(8-chloro-3-(cyclopropylmethyl)-[1,2,4]triazolo[4,3-b]pyridazin-7-yl)piperidin-4-yl)benzoate]	0.038 µM
COC(=O)c1ccccc1C1CCN(c2cnn3c(CC(F)(F)F)nnc3c2Cl)CC1 [Example 32, Methyl 2-(1-(8-chloro-3-(2,2,2-trifluoroethyl)-[1,2,4]triazolo[4,3-b]pyridazin-7-yl)piperidin-4-yl)benzoate]	0.015 µM
Clc1c(NCC2Cc3ccccc3C2)cnn2c(CC3CC3)nnc12 [Example 33, 8-Chloro-3-(cyclopropylmethyl)-N-((2,3-dihydro-1H-inden-2-yl)methyl)-[1,2,4]triazolo[4,3-b]pyridazin-7-amine]	0.021 µM
COc1cccc(F)c1C1CCN(c2cc3nnc(CC4CC4)n3cn2)CC1 [Example 34, 3-(Cyclopropylmethyl)-7-(4-(2-fluoro-6-methoxyphenyl)piperidin-1-yl)-[1,2,4]triazolo[4,3-c]pyrimidine]	0.649 µM
COc1ccc(OC)c(C2CCN(c3cnn4c(CC5CC5)nnc4c3Cl)CC2)c1 [Example 35, 8-Chloro-3-(cyclopropylmethyl)-7-(4-(2,5-dimethoxyphenyl)piperidin-1-yl)-[1,2,4]triazolo[4,3-b]pyridazine]	0.006 µM
COc1ccc(OC)c(C2CCN(c3cnn4c(CC(F)(F)F)nnc4c3Cl)CC2)c1 [Example 36, 8-Chloro-7-(4-(2,5-dimethoxyphenyl)piperidin-1-yl)-3-(2,2,2-trifluoroethyl)-[1,2,4]triazolo[4,3-b]pyridazine]	0.007 µM
COc1ccc(C2CCN(c3cnn4c(CC5CC5)nnc4c3Cl)CC2)c(OC)c1 [Example 37, 8-Chloro-3-(cyclopropylmethyl)-7-(4-(2,4-dimethoxyphenyl)piperidin-1-yl)-[1,2,4]triazolo[4,3-b]pyridazine]	0.009 µM
COc1ccc(C2CCN(c3cnn4c(CC(F)(F)F)nnc4c3Cl)CC2)c(OC)c1 [Example 38, 8-Chloro-7-(4-(2,4-dimethoxyphenyl)piperidin-1-yl)-3-(2,2,2-trifluoroethyl)-[1,2,4]triazolo[4,3-b]pyridazine]	0.005 µM
COc1cccc(F)c1C1CC1CNc1cnn2c(CC3CC3)nnc2c1Cl (stereo not shown) [Example 39, 8-Chloro-3-(cyclopropylmethyl)-N-((2-(2-fluoro-6-methoxyphenyl)cyclopropyl)methyl)-[1,2,4]triazolo[4,3-b]pyridazin-7-amine]	0.028 µM
COc1cccc(F)c1C1CC1CNc1cnn2c(CC(F)(F)F)nnc2c1Cl (stereo not shown) [Example 40, 8-Chloro-N-((2-(2-fluoro-6-methoxyphenyl)cyclopropyl)methyl)-3-(2,2,2-trifluoroethyl)-[1,2,4]triazolo[4,3-b]pyridazin-7-amine]	0.031 µM
Clc1c(N2CCC(c3ccncc3)CC2)cnn2c(CC3CC3)nnc12 [Example 41, 8-Chloro-3-(cyclopropylmethyl)-7-(4-(pyridin-4-yl)piperidin-1-yl)-[1,2,4]triazolo[4,3-b]pyridazine]	0.275 µM
COc1cc(OC)nc(C2CCN(c3cnn4c(CC5CC5)nnc4c3Cl)CC2)n1 [Example 42, 8-Chloro-3-(cyclopropylmethyl)-7-(4-(4,6-dimethoxypyrimidin-2-yl)piperidin-1-yl)-[1,2,4]triazolo[4,3-b]pyridazine]	0.011 µM

Structure (SMILES)	EC50
COc1cc(OC)nc(C2CCN(c3cnn4c(CC(F)(F)F)nnc4c3Cl)CC2)n1 [Example 43, 8-Chloro-7-(4-(4,6-dimethoxypyrimidin-2-yl)piperidin-1-yl)-3-(2,2,2-trifluoroethyl)-[1,2,4]triazolo[4,3-b]pyridazine]	0.01 µM
Clc1ccccc1C1CCN(c2cnn3c(CC4CC4)nnc3c2Cl)CC1 [Example 44, 8-Chloro-7-(4-(2-chlorophenyl)piperidin-1-yl)-3-(cyclopropylmethyl)-[1,2,4]triazolo[4,3-b]pyridazine]	0.045 µM
FC(F)(F)Cc1nnc2c(Cl)c(N3CCC(c4ccccc4Cl)CC3)cnn12 [Example 45, 8-Chloro-7-(4-(2-chlorophenyl)piperidin-1-yl)-3-(2,2,2-trifluoroethyl)-[1,2,4]triazolo[4,3-b]pyridazine]	0.048 µM
Clc1cccc(C2CCN(c3cnn4c(CC5CC5)nnc4c3Cl)CC2)c1Cl [Example 46, 8-Chloro-3-(cyclopropylmethyl)-7-(4-(2,3-dichlorophenyl)piperidin-1-yl)-[1,2,4]triazolo[4,3-b]pyridazine]	0.154 µM
Clc1cc(Cl)cc(C2CCN(c3cnn4c(CC5CC5)nnc4c3Cl)CC2)c1 [Example 47, 8-Chloro-3-(cyclopropylmethyl)-7-(4-(3,5-dichlorophenyl)piperidin-1-yl)-[1,2,4]triazolo[4,3-b]pyridazine]	0.144 µM
FC(F)(F)Cc1nnc2c(Cl)c(N3CCC(c4cc(Cl)cc(Cl)c4)CC3)cnn12 [Example 48, 8-Chloro-7-(4-(3,5-dichlorophenyl)piperidin-1-yl)-3-(2,2,2-trifluoroethyl)-[1,2,4]triazolo[4,3-b]pyridazine]	0.263 µM
CCN(CC1CC1c1ccc(F)cc1)c1cnn2c(CC3CC3)nnc2c1Cl (stereo not shown) [Example 49, 8-Chloro-3-(cyclopropylmethyl)-N-ethyl-N-((2-(4-fluorophenyl)cyclopropyl)methyl)-[1,2,4]triazolo[4,3-b]pyridazin-7-amine]	0.425 µM
Fc1ccc(F)c(C2CCN(c3cnn4c(CC5CC5)nnc4c3Cl)CC2)c1OC(F)F [Example 50, 8-Chloro-3-(cyclopropylmethyl)-7-(4-(2-(difluoromethoxy)-3,6-difluorophenyl)piperidin-1-yl)-[1,2,4]triazolo[4,3-b]pyridazine]	0.002 µM
Fc1ccc(F)c(C2CCN(c3cnn4c(CC(F)(F)F)nnc4c3Cl)CC2)c1OC(F)F [Example 51, 8-Chloro-7-(4-(2-(difluoromethoxy)-3,6-difluorophenyl)piperidin-1-yl)-3-(2,2,2-trifluoroethyl)-[1,2,4]triazolo[4,3-b]pyridazine]	0.003 µM
Fc1cc(OC(F)F)c(C2CCN(c3cnn4c(CC5CC5)nnc4c3Cl)CC2)cc1F [Example 52, 8-Chloro-3-(cyclopropylmethyl)-7-(4-(2-(difluoromethoxy)-4,5-difluorophenyl)piperidin-1-yl)-[1,2,4]triazolo[4,3-b]pyridazine]	0.008 µM
Fc1cc(OC(F)F)c(C2CCN(c3cnn4c(CC(F)(F)F)nnc4c3Cl)CC2)cc1F [Example 53, 8-Chloro-7-(4-(2-(difluoromethoxy)-4,5-difluorophenyl)piperidin-1-yl)-3-(2,2,2-trifluoroethyl)-[1,2,4]triazolo[4,3-b]pyridazine]	0.006 µM
Fc1cc(F)c(OC(F)F)c(C2CCN(c3cnn4c(CC5CC5)nnc4c3Cl)CC2)c1 [Example 54, 8-Chloro-3-(cyclopropylmethyl)-7-(4-(2-(difluoromethoxy)-3,5-difluorophenyl)piperidin-1-yl)-[1,2,4]triazolo[4,3-b]pyridazine]	0.01 µM
Fc1cc(F)c(OC(F)F)c(C2CCN(c3cnn4c(CC(F)(F)F)nnc4c3Cl)CC2)c1 [Example 55, 8-Chloro-7-(4-(2-(difluoromethoxy)-3,5-difluorophenyl)piperidin-1-yl)-3-(2,2,2-trifluoroethyl)-[1,2,4]triazolo[4,3-b]pyridazine]	0.021 µM
FC(F)(F)Cc1nnc2c(Cl)c(N3CCC(c4ccccc4)CC3)cnn12 [Example 56, 8-Chloro-7-(4-phenylpiperidin-1-yl)-3-(2,2,2-trifluoroethyl)-[1,2,4]triazolo[4,3-b]pyridazine]	0.062 µM
Clc1c(N2CCC(c3ccccc3)CC2)cnn2c(Cc3ccccc3)nnc12 [Example 57, 3-Benzyl-8-chloro-7-(4-phenylpiperidin-1-yl)-[1,2,4]triazolo[4,3-b]pyridazine]	0.217 µM

— patent US9682980B2, “Positive allosteric modulators of mGluR2” (BRISTOL-MYERS SQUIBB COMPANY, priority 2012, dated 2017)
